According to ChEMBL document CHEMBL1201861, “Genomics of Drug Sensitity in Cancer screening data, Wellcome Trust Sanger Institute”:
“And” between values parts separate entries of the source, which are not always exact repeats. Equal values may be shown once.

Experiments:
Assay in all cases: cells
KE-37 = format: functional, cell-based; details: Homo sapiens;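 also: growth inhibition of KE-37 cells, read out with a cell viability assay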
Description: SANGER: Inhibition of human KE-37 cell growth in a cell viability assay.

KOSC-2 = format: functional, cell-based, Homo sapiens;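 also: growth inhibition of KOSC-2 cells, read out by a cell viability assay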
Description: SANGER: Inhibition of human KOSC-2 cell growth in a cell viability assay.

HCC38 = format: functional, cell-based, Homo sapiens;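 also: cell viability assay on the human HCC38 cell line, with IC50 marking the concentration that inhibits cell growth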
Description: SANGER: Inhibition of human HCC38 cell growth in a cell viability assay.

OCUB-M = format: functional, cell-based, Homo sapiens;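 also: growth inhibition of the cancer cell line, read out through a cell viability assay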
Description: SANGER: Inhibition of human OCUB-M cell growth in a cell viability assay.

CWR22R = format: functional, cell-based, Homo sapiens;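 also: growth inhibition of 22Rv1 cells, read out with a cell viability assay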
Description: SANGER: Inhibition of human 22RV1 cell growth in a cell viability assay.

NCI-H292 = format: functional, cell-based, Homo sapiens;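 also: growth inhibition of NCI-H292 cells, read out with a cell viability assay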
Description: SANGER: Inhibition of human NCI-H292 cell growth in a cell viability assay.

TCC-SUP = format: functional, cell-based, Homo sapiens;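 also: growth inhibition of TCC-SUP cells, read out with a cell viability assay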
Description: SANGER: Inhibition of human TCCSUP cell growth in a cell viability assay.

HuP-T3 = format: functional, cell-based, Homo sapiens;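 also: HuP-T3 cell growth inhibition, read out with a cell viability assay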
Description: SANGER: Inhibition of human HuP-T3 cell growth in a cell viability assay.

KP-N-YS = format: functional, cell-based; details: Homo sapiens;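 also: cell viability assay measuring inhibition of cell line growth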
Description: SANGER: Inhibition of human KP-N-YS cell growth in a cell viability assay.

OS-RC-2 = format: functional, cell-based, Homo sapiens;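 also: growth inhibition of human OS-RC-2 cells, measured by a cell viability assay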
Description: SANGER: Inhibition of human OS-RC-2 cell growth in a cell viability assay.

MFE-280 = format: functional, cell-based, Homo sapiens;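 also: growth inhibition of MFE-280 cells, determined with a cell viability readout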
Description: SANGER: Inhibition of human MFE-280 cell growth in a cell viability assay.

HO-1-N-1 = format: functional, cell-based, Homo sapiens;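 also: growth inhibition of human HO-1-N-1 cells, read out with a cell viability assay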
Description: SANGER: Inhibition of human HO-1-N-1 cell growth in a cell viability assay.

CHP-212 = format: functional, cell-based, Homo sapiens
Description: SANGER: Inhibition of human CHP-212 cell growth in a cell viability assay.

LB2518-MEL = format: functional, cell-based, Homo sapiens;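 also: growth inhibition of human LB2518-MEL cells, measured with a cell viability assay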
Description: SANGER: Inhibition of human LB2518-MEL cell growth in a cell viability assay.

HH = format: functional, cell-based; details: Homo sapiens
Description: SANGER: Inhibition of human HH cell growth in a cell viability assay.

HCC70 = format: functional, cell-based, Homo sapiens;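 also: cell viability assay measuring how strongly the compound suppresses proliferation of HCC70 cells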
Description: SANGER: Inhibition of human HCC70 cell growth in a cell viability assay.

8-MG-BA = format: functional, cell-based, Homo sapiens;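 also: growth inhibition of 8-MG-BA cells, read out with a cell viability assay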
Description: SANGER: Inhibition of human 8-MG-BA cell growth in a cell viability assay.

EW-13 = format: functional, cell-based; details: Homo sapiens;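 also: growth inhibition of EW-13 cells, read out with a cell viability assay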
Description: SANGER: Inhibition of human EW-13 cell growth in a cell viability assay.

COR-L105 = format: functional, cell-based, Homo sapiens;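 also: cell growth inhibition determined with a viability assay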
Description: SANGER: Inhibition of human COR-L105 cell growth in a cell viability assay.

SKG-IIIa = format: functional, cell-based, Homo sapiens;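 also: cell growth inhibition, read out with a cell viability assay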
Description: SANGER: Inhibition of human SKG-IIIa cell growth in a cell viability assay.

KS-1 = format: functional, cell-based, Homo sapiens;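 also: growth inhibition of KS-1 cells, read out with a cell viability assay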
Description: SANGER: Inhibition of human KS-1 cell growth in a cell viability assay.

IGROV-1 = format: functional, cell-based, Homo sapiens;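 also: reduction of IGROV-1 cell growth, read out with a viability assay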
Description: SANGER: Inhibition of human IGROV-1 cell growth in a cell viability assay.

IST-SL1 = format: functional, cell-based, Homo sapiens;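 also: growth inhibition of human IST-SL1 cells, read out with a cell viability assay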
Description: SANGER: Inhibition of human IST-SL1 cell growth in a cell viability assay.

NCI-H226 = format: functional, cell-based, Homo sapiens;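 also: cell viability read-out used to gauge growth inhibition of the cells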
Description: SANGER: Inhibition of human NCI-H226 cell growth in a cell viability assay.

DMS-273 = format: functional, cell-based, Homo sapiens
Description: SANGER: Inhibition of human DMS-273 cell growth in a cell viability assay.

U-118-MG = format: functional, cell-based, Homo sapiens
Description: SANGER: Inhibition of human U-118-MG cell growth in a cell viability assay.

HC-1 = format: functional, cell-based; details: Homo sapiens;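 also: growth inhibition of HC-1 cells measured by a cell viability assay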
Description: SANGER: Inhibition of human HC-1 cell growth in a cell viability assay.

VA-ES-BJ = format: functional, cell-based, Homo sapiens;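 also: growth inhibition of the VA-ES-BJ cell line, read out by a cell viability assay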
Description: SANGER: Inhibition of human VA-ES-BJ cell growth in a cell viability assay.

5637 = format: functional, cell-based, Homo sapiens
Description: SANGER: Inhibition of human 5637 cell growth in a cell viability assay.

WM-115 = format: functional, cell-based, Homo sapiens
Description: SANGER: Inhibition of human WM-115 cell growth in a cell viability assay.

MZ1-PC = format: functional, cell-based, Homo sapiens;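 also: cell viability assay measuring growth inhibition of human MZ1-PC cells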
Description: SANGER: Inhibition of human MZ1-PC cell growth in a cell viability assay.

MLMA = format: functional, cell-based, Homo sapiens;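 also: growth inhibition of MLMA cells (human), determined through a cell viability readout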
Description: SANGER: Inhibition of human MLMA cell growth in a cell viability assay.

SF-295 = format: functional, cell-based, Homo sapiens; details: read-out: IC50;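 also: growth inhibition of SF-295 cells, read out with a cell viability assay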
Description: SANGER: Inhibition of human SF295 cell growth in a cell viability assay.

NCI-H510A = format: functional, cell-based; details: Homo sapiens;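 also: growth inhibition of NCI-H510A cells, read out with a cell viability assay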
Description: SANGER: Inhibition of human NCI-H510A cell growth in a cell viability assay.

MPP-89 = format: functional, cell-based, Homo sapiens;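 also: growth inhibition of human MPP-89 cells, read out with a cell viability assay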
Description: SANGER: Inhibition of human MPP-89 cell growth in a cell viability assay.

MC116 = format: functional, cell-based; details: Homo sapiens;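 also: growth inhibition of MC116 cells, read out with a cell viability assay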
Description: SANGER: Inhibition of human MC116 cell growth in a cell viability assay.

KARPAS-45 = format: functional, cell-based; details: Homo sapiens;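 also: inhibition of cell line growth, read out through a viability assay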
Description: SANGER: Inhibition of human KARPAS-45 cell growth in a cell viability assay.

SiHa = format: functional, cell-based, Homo sapiens;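 also: Viability-based readout of growth inhibition in SiHa cells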
Description: SANGER: Inhibition of human SiHa cell growth in a cell viability assay.

OVCAR-4 = format: functional, cell-based, Homo sapiens;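 also: growth inhibition of human OVCAR-4 cells, measured with a cell viability assay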
Description: SANGER: Inhibition of human OVCAR-4 cell growth in a cell viability assay.

NOMO-1 = format: functional, cell-based; details: Homo sapiens;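 also: growth inhibition of human NOMO-1 cells measured by a cell viability assay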
Description: SANGER: Inhibition of human NOMO-1 cell growth in a cell viability assay.

KGN = format: functional, cell-based, Homo sapiens;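 also: growth inhibition of KGN cells, read out with a cell viability assay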
Description: SANGER: Inhibition of human KGN cell growth in a cell viability assay.

KU812 cell line = format: functional, cell-based; details: Homo sapiens;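 also: growth inhibition of KU812 cells, read out with a cell viability assay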
Description: SANGER: Inhibition of human KU812 cell growth in a cell viability assay.

NOS-1 = format: functional, cell-based, Homo sapiens;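 also: growth inhibition of the human NOS-1 cell line, read out with a cell viability assay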
Description: SANGER: Inhibition of human NOS-1 cell growth in a cell viability assay.

ES8 = format: functional, cell-based, Homo sapiens;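 also: growth inhibition of human ES8 cells, read out with a cell viability assay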
Description: SANGER: Inhibition of human ES8 cell growth in a cell viability assay.

LB1047-RCC = format: functional, cell-based, Homo sapiens;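 also: inhibition of cell growth, determined with a cell viability assay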
Description: SANGER: Inhibition of human LB1047-RCC cell growth in a cell viability assay.

SH-4 = format: functional, cell-based, Homo sapiens;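 also: growth inhibition of SH-4 cells, read out with a cell viability assay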
Description: SANGER: Inhibition of human SH-4 cell growth in a cell viability assay.

ML-2 = format: functional, cell-based; details: Homo sapiens;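 also: growth inhibition of ML-2 cells, measured with a cell viability readout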
Description: SANGER: Inhibition of human ML-2 cell growth in a cell viability assay.

CTV-1 = format: functional, cell-based; details: Homo sapiens;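 also: growth inhibition of the cell line, read out with a cell viability assay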
Description: SANGER: Inhibition of human CTV-1 cell growth in a cell viability assay.

MOLT-16 = format: functional, cell-based; details: Homo sapiens;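 also: growth inhibition of human MOLT-16 cells, read out with a cell viability assay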
Description: SANGER: Inhibition of human MOLT-16 cell growth in a cell viability assay.

SNU-449 = format: functional, cell-based, Homo sapiens
Description: SANGER: Inhibition of human SNU-449 cell growth in a cell viability assay.

MeWo = format: functional, cell-based, Homo sapiens;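 also: growth inhibition of MeWo cells, determined by a cell viability readout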
Description: SANGER: Inhibition of human Mewo cell growth in a cell viability assay.

RXF 393 = format: functional, cell-based; details: Homo sapiens;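 also: growth inhibition of human RXF 393 cells, read out with a cell viability assay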
Description: SANGER: Inhibition of human RXF393 cell growth in a cell viability assay.

UO-31 = format: functional, cell-based; details: Homo sapiens;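 also: cell viability assay measuring inhibition of cell growth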
Description: SANGER: Inhibition of human U031 cell growth in a cell viability assay.

Cc1cc([C@@H](C)Nc2ccccc2C(=O)O)c2nc(N3CCOCC3)cc(=O)n2c1 [AZD-6482]
IC50 (KE-37): > 5.12 µM
IC50 (KOSC-2; kosc-2): > 5.12 µM
IC50 (HCC38; hcc38): > 5.12 µM
IC50 (OCUB-M; ocub-m): 1.58 µM and 0.728 µM
IC50 (CWR22R; Homo sapiens, 22Rv1): > 5.12 µM
IC50 (CWR22R; cwr22r): > 5.12 µM
IC50 (NCI-H292; nci-h292): 3.65 µM and 1.56 µM
IC50 (TCC-SUP; tcc-sup): > 5.12 µM
IC50 (HuP-T3; hup-t3): > 5.12 µM
IC50 (KP-N-YS): > 5.12 µM
IC50 (OS-RC-2; os-rc-2): 0.624 µM and > 5.12 µM
IC50 (MFE-280; mfe-280): > 5.12 µM
IC50 (HO-1-N-1; ho-1-n-1): > 5.12 µM
IC50 (CHP-212; chp-212): > 5.12 µM
IC50 (LB2518-MEL; Homo sapiens, LB2518-MEL): > 5.12 µM
IC50 (LB2518-MEL; lb2518-mel): > 5.12 µM
IC50 (HH): 0.962 µM
IC50 (HCC70; hcc70): 1.66 µM and > 5.12 µM
IC50 (8-MG-BA; 8-mg-ba): > 5.12 µM
IC50 (EW-13): > 5.12 µM
IC50 (COR-L105; cor-l105): > 5.12 µM
IC50 (SKG-IIIa; skg-iiia): > 5.12 µM
IC50 (KS-1; Homo sapiens, KS-1): > 5.12 µM
IC50 (KS-1; ks-1): > 5.12 µM
IC50 (IGROV-1; Homo sapiens, IGROV-1): 1.97 µM
IC50 (IGROV-1; igrov-1): 2.55 µM
IC50 (IST-SL1; ist-sl1): > 5.12 µM
IC50 (NCI-H226; Homo sapiens, NCI-H226): > 5.12 µM
IC50 (NCI-H226; nci-h226): > 5.12 µM
IC50 (DMS-273; Homo sapiens, DMS-273): 4.83 µM
IC50 (DMS-273; dms-273): 2.48 µM
IC50 (U-118-MG; u-118-mg): > 5.12 µM and 3.26 µM
IC50 (HC-1): > 5.12 µM
IC50 (VA-ES-BJ; Homo sapiens, VA-ES-BJ): > 5.12 µM
IC50 (VA-ES-BJ; va-es-bj): > 5.12 µM
IC50 5637: > 5.12 µM
IC50 (5637; Homo sapiens): > 5.12 µM
IC50 (WM-115; wm-115): > 5.12 µM
IC50 (MZ1-PC; mz1-pc): > 5.12 µM
IC50 (MLMA; Homo sapiens, MLMA): 3.72 µM
IC50 (MLMA; mlma): 4.88 µM
IC50 (SF-295; sf-295): 2.77 µM and > 5.12 µM
IC50 (NCI-H510A): > 5.12 µM
IC50 (MPP-89; mpp-89): > 5.12 µM
IC50 (MC116): 1.46 µM
IC50 (KARPAS-45): 3.3 µM
IC50 (SiHa; Homo sapiens, SiHa): > 5.12 µM
IC50 (SiHa; siha): > 5.12 µM
IC50 (OVCAR-4; ovcar-4): > 5.12 µM
IC50 (NOMO-1): 3.32 µM
IC50 (KGN; kgn): 4.32 µM and > 5.12 µM
IC50 (KU812 cell line): 1.6 µM
IC50 (NOS-1; Homo sapiens, NOS-1): > 5.12 µM
IC50 (NOS-1; nos-1): > 5.12 µM
IC50 (ES8; es8): > 5.12 µM
IC50 (LB1047-RCC; Homo sapiens, LB1047-RCC): > 5.12 µM
IC50 (LB1047-RCC; lb1047-rcc): > 5.12 µM
IC50 (SH-4; sh-4): > 5.12 µM
IC50 (ML-2): 3.56 µM
IC50 (CTV-1): > 5.12 µM
IC50 (MOLT-16): 4.33 µM
IC50 (SNU-449; Homo sapiens, SNU-449): > 5.12 µM
IC50 (SNU-449; snu-449): > 5.12 µM
IC50 (MeWo; mewo): > 5.12 µM and 3.17 µM

CN(Cc1cnc2nc(N)nc(N)c2n1)c1ccc(C(=O)N[C@@H](CCC(=O)O)C(=O)O)cc1 [METHOTREXATE]
IC50 (KE-37): 0.0155 µM
IC50 (KOSC-2; Homo sapiens, KOSC-2): > 0.2 µM
IC50 (HCC38; Homo sapiens, HCC38): > 0.2 µM
IC50 (OCUB-M; Homo sapiens, OCUB-M): > 0.2 µM
IC50 (CWR22R; Homo sapiens, 22Rv1): > 0.2 µM
IC50 (NCI-H292; Homo sapiens, NCI-H292): > 0.2 µM
IC50 (TCC-SUP; Homo sapiens, TCC-SUP): > 0.2 µM
IC50 (RXF 393): > 0.2 µM
IC50 (HuP-T3; Homo sapiens, HuP-T3): > 0.2 µM
IC50 (KP-N-YS): > 0.2 µM
IC50 (OS-RC-2; Homo sapiens, OS-RC-2): > 0.2 µM
IC50 (MFE-280; Homo sapiens, MFE-280): > 0.2 µM
IC50 (HO-1-N-1; Homo sapiens, HO-1-N-1): > 0.2 µM
IC50 (CHP-212; Homo sapiens, CHP-212): > 0.2 µM
IC50 (LB2518-MEL; Homo sapiens, LB2518-MEL): > 0.2 µM
IC50 (HH): 0.0316 µM
IC50 (HCC70; Homo sapiens, HCC70): > 0.2 µM
IC50 (8-MG-BA; Homo sapiens, 8-MG-BA): > 0.2 µM
IC50 (EW-13): 0.0723 µM
IC50 (COR-L105; Homo sapiens, COR-L105): > 0.2 µM
IC50 (SKG-IIIa; Homo sapiens, SKG-IIIa): > 0.2 µM
IC50 (KS-1; Homo sapiens, KS-1): > 0.2 µM
IC50 (IST-SL1; Homo sapiens, IST-SL1): > 0.2 µM
IC50 (NCI-H226; Homo sapiens, NCI-H226): > 0.2 µM
IC50 (DMS-273; Homo sapiens, DMS-273): > 0.2 µM
IC50 (U-118-MG; Homo sapiens, U-118-MG): > 0.2 µM
IC50 (HC-1): 0.0696 µM
IC50 (VA-ES-BJ; Homo sapiens, VA-ES-BJ): > 0.2 µM
IC50 (5637; Homo sapiens): > 0.2 µM
IC50 (WM-115; Homo sapiens, WM-115): > 0.2 µM
IC50 (MZ1-PC; Homo sapiens, MZ1-PC): > 0.2 µM
IC50 (MLMA; Homo sapiens, MLMA): 0.0965 µM
IC50 (SF-295; Homo sapiens, SF-295): > 0.2 µM
IC50 (NCI-H510A): > 0.2 µM
IC50 (MPP-89; Homo sapiens, MPP-89): > 0.2 µM
IC50 (MC116): 0.0606 µM
IC50 (KARPAS-45): 0.124 µM
IC50 (SiHa; Homo sapiens, SiHa): > 0.2 µM
IC50 (OVCAR-4; Homo sapiens, OVCAR-4): > 0.2 µM
IC50 (NOMO-1): 0.0162 µM
IC50 (KGN; Homo sapiens, KGN): 0.15 µM
IC50 (NOS-1; Homo sapiens, NOS-1): > 0.2 µM
IC50 (ES8; Homo sapiens, ES8): > 0.2 µM
IC50 (LB1047-RCC; Homo sapiens, LB1047-RCC): > 0.2 µM
IC50 (SH-4; Homo sapiens, SH-4): > 0.2 µM
IC50 (ML-2): 0.00497 µM
IC50 (CTV-1): 0.0771 µM
IC50 (MOLT-16): 0.0116 µM
IC50 (SNU-449; Homo sapiens, SNU-449): > 0.2 µM
IC50 (MeWo; Homo sapiens, MeWo): > 0.2 µM
IC50 (UO-31): > 0.2 µM
